In ChEMBL document CHEMBL1152937, “Carbonic anhydrase inhibitors. Inhibition and homology modeling studies of the fungal beta-carbonic anhydrase from Candida albicans with sulfonamides” (Bioorg Med Chem, 2009):

The compounds below were run against T1, Carbonic anhydrase (Candida albicans (strain SC5314 / ATCC MYA-2876) (Yeast), UniProt Q5AJ71).
T1 sequence (Q5AJ71 whole entry): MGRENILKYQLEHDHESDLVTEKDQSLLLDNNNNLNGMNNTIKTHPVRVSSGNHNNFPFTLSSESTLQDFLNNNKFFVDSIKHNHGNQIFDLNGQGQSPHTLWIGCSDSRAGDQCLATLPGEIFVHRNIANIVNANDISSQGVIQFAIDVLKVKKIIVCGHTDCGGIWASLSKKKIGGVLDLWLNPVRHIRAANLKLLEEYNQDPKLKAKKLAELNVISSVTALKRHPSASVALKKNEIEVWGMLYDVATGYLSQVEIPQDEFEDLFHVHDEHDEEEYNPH

Row | Structure (SMILES) | Ki
1 | Cn1nc(S(N)(=O)=O)sc1=N | 1370 nM
2 | Nc1cc(Cl)c(S(N)(=O)=O)cc1S(N)(=O)=O | 874 nM
3 | NS(=O)(=O)c1nnc(-c2ccccc2Cl)s1 | 1290 nM
4 | Nc1ccc(S(=O)(=O)NCCc2ccc(S(N)(=O)=O)cc2)cc1 | 727 nM
5 | Nc1ccc(S(N)(=O)=O)cc1F | 1240 nM
6 | NS(=O)(=O)c1ccc(C(=O)O)cc1 [CARZENIDE] | 861 nM
7 | O=C1NS(=O)(=O)c2ccccc21 [SACCHARIN] | 736 nM
8 | Nc1ccc(S(N)(=O)=O)cc1Br | 408 nM
9 | Cc1ccc(-c2cc(C(F)(F)F)nn2-c2ccc(S(N)(=O)=O)cc2)cc1 [CELECOXIB] | 1020 nM
10 | Nc1ccc(S(N)(=O)=O)cc1 [SULFANILAMIDE] | 7630 nM
11 | CCN[C@H]1CN(CCCOC)S(=O)(=O)c2sc(S(N)(=O)=O)cc21 [BRINZOLAMIDE] | 1100 nM
12 | CC1(C)O[C@@H]2[C@@H](CO[C@@]3(COS(N)(=O)=O)OC(C)(C)O[C@@H]23)O1 [TOPIRAMATE] | 1110 nM
13 | Nc1ccc(S(=O)(=O)NCc2ccc(S(N)(=O)=O)cc2)cc1 | 1310 nM
14 | NS(=O)(=O)c1ccc(CCO)cc1 | 1210 nM
15 | Nc1nccc(Nc2ccc(S(N)(=O)=O)cc2)n1 | 1110 nM
16 | Nc1ccc(S(=O)(=O)Nc2nnc(S(N)(=O)=O)s2)cc1 | 1090 nM
17 | Nc1ccc(S(N)(=O)=O)cc1Cl | 1340 nM
18 | NCc1ccc(S(N)(=O)=O)cc1 [MAFENIDE] | 1110 nM
19 | NS(=O)(=O)c1ccc(CO)cc1 | 383 nM
20 | NS(=O)(=O)c1nnc(NS(=O)(=O)c2ccccc2)s1 [BENZOLAMIDE] | 1510 nM
21 | Nc1cc(C(F)(F)F)c(S(N)(=O)=O)cc1S(N)(=O)=O [2,4-DISULFAMYLTRIFLUOROMETHYLANILINE] | 6110 nM
22 | NCCc1ccc(S(N)(=O)=O)cc1 | 3200 nM
